“And” between values parts separate entries of the source, which are not always exact repeats. Identical values can stand only once. “Also recorded” adds a separate entry of the source. Like-named read-outs stand apart in the source and are kept apart here.
How the values were obtained:
[1] = cited from earlier work; for pH: amino acid; for Solubility: at 25° C.
[2] = cited from earlier work; for pH: pH is altered by concentration and temperature; for Solubility: solubility is altered by temperature
[3] = cited from earlier work
[4] = Calculation of Essential pH and Stability Range Factor (SRF); assay type: physicochemical; details: calculated from pKa; read-out: Stability Range Factor (SRF), pH range (pKa + 0.7) to 10.9
Description: A proton pump inhibitor dose within its calculated pHE range is designed to ensure sufficient proton pump inhibitor protection from acid degradation such that delivery to and action upon proton pumps occur. In one desirable embodiment, the pHE is the sum of the pKa of a given proton pump inhibitor plus about 0.7.
SRF is calculated based on the desirable shelf-life (or a dwell time), the environmental pH and the amount of acid expected to be encountered, along with a knowledge of the time of exposure expected after the drug is administered and before the drug reaches the blood (i.e., the dwell time).
The upper limit of the SRF is a function of the tolerability of the gastrointestinal mucosa to alkaline substances, which is determined by the Formulation pH and the concentration of alkaline material presented. […] It is acknowledged that the amount of buffer is an important aspect of the tissue destructive potential of an alkaline substance.
Examples of pHE calculations with SRF for specific proton pump inhibiting agents are as follows:
pHE of proton pump inhibitor=pKa of proton pump inhibitor+0.7.

[5] = acidic stomach / gastric environment (pH of 1.2 where stated), upon complete dissolution; cited from earlier work
clinical [6] = details: human, plasma, 40 mg
gastric pH [7] = experiment: Example IX: gastric pH of nasogastric aspirate (pH paper) in mechanically ventilated critically ill patients; assay type: in vivo, human; details: mean ± standard deviation where given
Description: Each dose was administered through the nasogastric tube.
Gastric pH was measured immediately after aspirating gastric contents through the nasogastric tube. pH paper (pHydrion improved pH papers, Microessential Laboratory, Brooklyn, N.Y.) was used to measure gastric aspirate pH. The pH range of the test strips was 1 to 11, in increments of one pH unit. Gastric pH was measured before the initiation of omeprazole solution therapy, immediately before each dose, and every four hours between doses.

[8] = tested on: stress-related mucosal bleeding; experiment: Example IX: clinically significant stress-related mucosal bleeding, mortality, pneumonia and adverse events in mechanically ventilated critically ill patients
gastric pH [9] = experiment: Example XIV: continuous gastric pH monitoring (Zinetics probe) after omeprazole suspension; details: from 1 h after administration for the entire 24-h study period; both routes
[10] = Example XV: omeprazole concentration vs time after single dose SOS in patients at risk for SRMD (HPLC); details: single dose SOS 40 mg
clinical [11] = details: human, plasma, oral, 40 mg

Row | Compound | pH [1] | Solubility [1] | pH [2] | other results
1 | C[C@H](N)C(=O)O [Alanine] | 6 | 16.65 g/100 g H2O | – | –
2 | N=C(N)NCCC[C@H](N)C(=O)O [Arginine] | 11.15 | – | – | –
3 | NC(=O)C[C@H](N)C(=O)O [Asparagine] | 5.41 | 3.53 g/100 g H2O | – | –
4 | N[C@@H](CC(=O)O)C(=O)O [Aspartic Acid] | 2.77 | – | – | –
5 | O=C([O-])CC(O)(CC(=O)[O-])C(=O)[O-].O=C([O-])CC(O)(CC(=O)[O-])C(=O)[O-].[Ca+2].[Ca+2].[Ca+2] [Calcium citrate] | – | – | 6.8 | –
6 | CC(O)C(=O)[O-].CC(O)C(=O)[O-].[Ca+2] (centres unmarked) [Calcium lactate] | – | – | 7 | –
7 | N[C@@H](CS)C(=O)O [Cysteine] | 5.02 | Very | – | –
8 | O=P([O-])([O-])O.[Na+].[Na+] [Dibasic sodium phosphate] | – | – | 8.6-9.3 | –
9 | N[C@@H](CCC(=O)O)C(=O)O [Glutamic Acid] | 3.22 | – | – | –
10 | NC(=O)CC[C@H](N)C(=O)O [Glutamine] | – | 2.5 g/100 g H2O | – | –
11 | NCC(=O)O [Glycine] | 5.97 | – | – | –
12 | N[C@@H](Cc1c[nH]cn1)C(=O)O [Histidine] | 7.47 | 4.19 g/100 g H2O | – | –
13 | CC[C@H](C)[C@H](N)C(=O)O [Isoleucine] | 5.94 | 4.117 g/100 g H2O | – | –
14 | Cc1c(OCC(F)(F)F)ccnc1C[S+]([O-])c1nc2ccccc2[nH]1 (centres unmarked) [Lansoprazole, lansoprazole] | – | – | – | Solubility in water [3]: very slightly; pKa [3]: Lansoprazole has a pKa of 4.1; thus, the Essential pH = 4.1 + 0.7 ≧ 4.8; Solubility in water ([3]; listed as Lansoprazole base): very slightly soluble in water; Stability Range Factor (pH range) [4]: 4.8 to 10.9; time in which drug could undergo 50% degradation [5]: 2 min
15 | CC(C)C[C@H](N)C(=O)O [Leucine] | – | 2.426 g/100 g H2O | – | –
16 | NCCCC[C@H](N)C(=O)O [Lysine] | 9.59 | Very | – | –
17 | CC(O)C(=O)[O-].CC(O)C(=O)[O-].[Mg+2] (centres unmarked) [Magnesium lactate] | – | – | 5.5-7.5 | –
18 | [O]=[Mg] [Magnesium oxide] | – | – | 9.5-10.5 | Solubility [2]: 0.62 mg/100 mL
19 | CSCC[C@H](N)C(=O)O [Methionine] | 5.74 | 3.381 g/100 g H2O | – | –
20 | COc1ccc2[nH]c([S+]([O-])Cc3ncc(C)c(OC)c3C)nc2c1 (centres unmarked) [Omeprazole] | – | – | – | Solubility in water [3]: slightly soluble; pKa [3]: Omeprazole has a pKa of 3.9; thus, the Essential pH = 3.9 + 0.7 ≧ 4.6; Solubility in water ([3]; listed as Omeprazole base): only slightly soluble in water; concentration at 3 min (clinical [6]): 27.5 ng/mL; concentration at 5 min (clinical [6]): 73.5 ng/mL; concentration at 8 h (clinical [6]): 232 ng/mL; concentration at 75 min (clinical [6]; oral): 610 ng/mL; Stability Range Factor (pH range) [4]: 4.6 to 10.9; gastric pH four hours after omeprazole was first administered (mean) (gastric pH [7]; 40 mg omeprazole solution per ng tube): 7.1 and 7.1±1.1; lowest gastric pH after starting omeprazole (mean) (gastric pH [7]): 5.6 and 5.6±1.3; mean gastric pH after starting omeprazole (mean) (gastric pH [7]): 6.8 and 6.8±0.6; adverse event or drug interaction attributable to omeprazole ([8]; high-risk population): No patient; also recorded: No adverse events or drug interaction; incidence of pneumonia ([8]; nine of 75 patients): twelve; mean intragastric pH values (gastric pH [9]): > 4; absorption as measured by Area Under the Curve (AUC) compared to enteric-coated form [10]: did not appear to be significantly decreased; time in which drug could undergo 50% degradation [5]: less than 3 minutes; concentration at 0 h (clinical [11]): 0 ng/mL

Row | Compound | pH [1] | Solubility [1] | pH [2] | other results
21 | COc1ccnc(C[S+]([O-])c2nc3ccc(OC(F)F)cc3[nH]2)c1OC (centres unmarked) [Pantoprazole sodium] | – | – | – | Solubility in water [3]: very soluble; pKa [3]: 3; Solubility in water ([3]; listed as pantoprazole sodium): very soluble in water; time in which drug could undergo 50% degradation [5]: less than 5 minutes
22 | N[C@@H](Cc1ccccc1)C(=O)O [Phenylalanine] | 5.48 | 2.965 g/100 g H2O | – | –
23 | O=C(O)[C@@H]1CCCN1 [Proline] | 6.30 | – | – | –
24 | COCCCOc1ccnc(C[S+]([O-])c2nc3ccccc3[nH]2)c1C (centres unmarked) [Rabeprazole sodium] | – | – | – | Solubility in water [3]: very soluble in water; pKa [3]: 4.9; time in which drug could undergo 50% degradation [5]: less than 1.5 minutes
25 | N[C@@H](CO)C(=O)O [Serine] | 5.68 | – | – | –
26 | O=C([O-])CC(O)(CC(=O)[O-])C(=O)[O-].[Na+].[Na+].[Na+] [Sodium citrate] | – | – | 5 | –
27 | O=C([O-])[C@H](O)[C@@H](O)[C@H](O)[C@H](O)CO.[Na+] [Sodium gluconate] | – | – | 6-8 | –
28 | CC(O)C(=O)[O-].[Na+] (centres unmarked) [Sodium lactate] | – | – | 7 | –
29 | O=P([O-])([O-])[O-].[Na+].[Na+].[Na+] [Sodium phosphate (tribasic)] | – | – | 10.7-12.1 | –
30 | O=P(O)(O)OP(=O)(O)OP(=O)(O)O [Sodium tripolyphosphate] | – | – | 9.7-10 | Solubility [2]: 6 gm/100 mL
31 | C[C@@H](O)[C@H](N)C(=O)O [Threonine] | 5.64 | – | – | –
32 | N[C@@H](Cc1c[nH]c2ccccc12)C(=O)O [Tryptophan] | 5.89 | 1.136 g/100 g H2O | – | –
33 | N[C@@H](Cc1ccc(O)cc1)C(=O)O [Tyrosine] | 5.66 | – | – | –
34 | CC(C)[C@H](N)C(=O)O [Valine] | 5.96 | 8.85 g/100 g H2O | – | –
35 | COc1ccc2nc([S@@+]([O-])Cc3ncc(C)c(OC)c3C)[nH]c2c1 [esomeprazole] | – | – | – | pKa [3]: Essential pH (esomeprazole pKa = 3.9 + 0.7 ≧ 4.6)
36 | COc1ccnc(C[S+]([O-])c2nc3ccc(OC(F)F)cc3[nH]2)c1OC (centres unmarked) [pantoprazole] | – | – | – | Stability Range Factor (pH range) [4]: 3.7 to 10.9
37 | COCCCOc1ccnc(C[S+]([O-])c2nc3ccccc3[nH]2)c1C (centres unmarked) [rabeprazole] | – | – | – | Stability Range Factor (pH range) [4]: 5.6 to 10.9
38 | Calcium gluconate | – | – | 7.4 | –
39 | Calcium glycerophosphate | – | – | 7 | –
40 | Magnesium gluconate | – | – | 7.3 | –
